How the values were obtained:
[1] = potent nucleophile 2-mercaptopyridine; 37° C., 24 h
[2] = Poly(S-alkyl-L-methionine) stability studies in aqueous buffers; format: physicochemical; conditions: aqueous buffers ranging in pH from 5 to 9; 37° C., 24 h; S-alkyl-Met/Met ratio by 1H NMR
Method: The mixture was incubated on a 37° C. H2O bath for 24 h. […] The retentate was lyophilized.

Substance: Poly(S-(3-azido-2-hydroxypropyl)-L-methionine sulfonium chloride) [compound 4]
- stability against dealkylation by nucleophile [1]: quite stable
- stability in aqueous buffers [2]: good stability

— patent US10351591B2, “Polypeptides, peptides, and proteins functionalized by alkylation of thioether groups via ring-opening reactions” (The Regents of the University of California, priority 2015, dated 2019)
